Measured values published in patent publication US11739098B2 (BRISTOL-MYERS SQUIBB COMPANY, priority 2017, dated 2023).

Columns and labels:
Type in all cases: cell-based
human TLR8 = target: T1, human TLR8 (Homo sapiens, UniProt Q9NR97); assay: TLR8 inhibition reporter assay (HEK-Blue cells, SEAP reporter, R848 stimulation); details: HEK-Blue cells overexpressing human TLR8, SEAP reporter, R848 15.9 μM
T1 construct: host or cells: HEK-Blue cells (HEK293-derived reporter line)
T1 sequence (Q9NR97 27-1041): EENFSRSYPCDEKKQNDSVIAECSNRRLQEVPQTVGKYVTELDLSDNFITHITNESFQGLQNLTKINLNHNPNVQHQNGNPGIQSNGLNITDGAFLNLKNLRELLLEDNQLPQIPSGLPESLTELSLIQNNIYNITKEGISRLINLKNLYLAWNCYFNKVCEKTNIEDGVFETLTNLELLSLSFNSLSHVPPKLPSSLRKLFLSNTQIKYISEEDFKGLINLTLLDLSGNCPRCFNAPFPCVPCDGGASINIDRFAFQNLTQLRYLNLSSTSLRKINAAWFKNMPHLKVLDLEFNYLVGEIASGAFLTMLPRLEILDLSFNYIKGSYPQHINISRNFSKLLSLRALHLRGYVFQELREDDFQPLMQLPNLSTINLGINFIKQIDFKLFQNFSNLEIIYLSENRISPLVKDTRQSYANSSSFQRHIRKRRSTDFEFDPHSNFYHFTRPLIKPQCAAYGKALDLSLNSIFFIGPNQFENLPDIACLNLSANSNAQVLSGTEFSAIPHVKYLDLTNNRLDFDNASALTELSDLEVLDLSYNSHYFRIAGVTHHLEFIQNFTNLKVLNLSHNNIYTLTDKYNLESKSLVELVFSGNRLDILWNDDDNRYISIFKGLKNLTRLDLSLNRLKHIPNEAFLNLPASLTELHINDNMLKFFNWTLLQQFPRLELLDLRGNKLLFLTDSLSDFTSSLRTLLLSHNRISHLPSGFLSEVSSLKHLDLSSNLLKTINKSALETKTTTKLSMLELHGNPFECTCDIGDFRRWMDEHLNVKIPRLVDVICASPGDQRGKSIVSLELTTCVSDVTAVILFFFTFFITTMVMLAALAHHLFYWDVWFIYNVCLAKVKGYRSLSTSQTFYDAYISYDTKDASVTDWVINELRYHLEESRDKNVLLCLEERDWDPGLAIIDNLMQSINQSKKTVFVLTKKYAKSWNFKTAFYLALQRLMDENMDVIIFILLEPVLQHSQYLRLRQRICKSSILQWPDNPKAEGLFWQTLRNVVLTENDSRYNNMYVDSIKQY
In short: (§1)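 Percent inhibition of agonist-induced SEAP secretion in HEK-Blue cells after 22 h at 37 °C. Stimuli: 7.5 μM gardiquimod, 15.9 μM R848, 5 nM ODN2006 for TLR7, TLR8 and TLR9, added after 30 min compound exposure over a 0.05 nM–50 μM range.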

human TLR9 = target: T2, human TLR9 (Homo sapiens, UniProt Q9NR96); assay: TLR9 inhibition reporter assay (HEK-Blue cells, SEAP reporter, ODN2006 stimulation); details: HEK-Blue cells overexpressing human TLR9, SEAP reporter, ODN2006 5 nM
T2 construct: host or cells: HEK-Blue cells (HEK293-derived reporter line)
T2 sequence (Q9NR96 26-1032): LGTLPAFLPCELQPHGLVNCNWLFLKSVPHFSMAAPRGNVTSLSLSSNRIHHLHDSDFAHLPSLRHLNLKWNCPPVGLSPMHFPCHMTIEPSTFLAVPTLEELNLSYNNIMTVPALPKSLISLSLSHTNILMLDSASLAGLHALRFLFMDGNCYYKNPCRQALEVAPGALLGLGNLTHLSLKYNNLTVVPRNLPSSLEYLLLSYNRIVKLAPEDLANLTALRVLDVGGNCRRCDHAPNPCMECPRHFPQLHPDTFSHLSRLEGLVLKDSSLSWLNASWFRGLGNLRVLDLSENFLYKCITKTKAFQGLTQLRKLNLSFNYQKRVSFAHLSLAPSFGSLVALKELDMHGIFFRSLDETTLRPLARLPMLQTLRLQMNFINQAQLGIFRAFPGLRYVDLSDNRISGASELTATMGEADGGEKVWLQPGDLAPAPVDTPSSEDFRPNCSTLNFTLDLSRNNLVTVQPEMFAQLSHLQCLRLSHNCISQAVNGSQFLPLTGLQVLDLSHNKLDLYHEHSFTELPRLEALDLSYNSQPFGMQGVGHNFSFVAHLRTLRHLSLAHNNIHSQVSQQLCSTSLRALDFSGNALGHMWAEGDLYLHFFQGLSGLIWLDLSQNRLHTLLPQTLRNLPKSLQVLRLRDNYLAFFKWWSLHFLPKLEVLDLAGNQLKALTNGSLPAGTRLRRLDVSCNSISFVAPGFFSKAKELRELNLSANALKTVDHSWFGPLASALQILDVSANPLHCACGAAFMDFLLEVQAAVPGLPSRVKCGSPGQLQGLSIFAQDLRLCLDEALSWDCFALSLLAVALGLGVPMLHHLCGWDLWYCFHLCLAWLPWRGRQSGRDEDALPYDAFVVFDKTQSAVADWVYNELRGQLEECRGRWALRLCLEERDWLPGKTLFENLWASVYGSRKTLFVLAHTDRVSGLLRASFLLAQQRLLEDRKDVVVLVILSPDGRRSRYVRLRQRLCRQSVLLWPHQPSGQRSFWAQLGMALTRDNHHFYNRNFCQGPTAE
In short: as §1

human TLR7 = target: T3, human TLR7 (Homo sapiens, UniProt Q9NYK1); assay: TLR7 inhibition reporter assay (HEK-Blue cells, SEAP reporter, gardiquimod stimulation); details: HEK-Blue cells overexpressing human TLR7, SEAP reporter, gardiquimod 7.5 μM
T3 construct: host or cells: HEK-Blue cells (HEK293-derived reporter line)
T3 sequence (Q9NYK1 27-1049): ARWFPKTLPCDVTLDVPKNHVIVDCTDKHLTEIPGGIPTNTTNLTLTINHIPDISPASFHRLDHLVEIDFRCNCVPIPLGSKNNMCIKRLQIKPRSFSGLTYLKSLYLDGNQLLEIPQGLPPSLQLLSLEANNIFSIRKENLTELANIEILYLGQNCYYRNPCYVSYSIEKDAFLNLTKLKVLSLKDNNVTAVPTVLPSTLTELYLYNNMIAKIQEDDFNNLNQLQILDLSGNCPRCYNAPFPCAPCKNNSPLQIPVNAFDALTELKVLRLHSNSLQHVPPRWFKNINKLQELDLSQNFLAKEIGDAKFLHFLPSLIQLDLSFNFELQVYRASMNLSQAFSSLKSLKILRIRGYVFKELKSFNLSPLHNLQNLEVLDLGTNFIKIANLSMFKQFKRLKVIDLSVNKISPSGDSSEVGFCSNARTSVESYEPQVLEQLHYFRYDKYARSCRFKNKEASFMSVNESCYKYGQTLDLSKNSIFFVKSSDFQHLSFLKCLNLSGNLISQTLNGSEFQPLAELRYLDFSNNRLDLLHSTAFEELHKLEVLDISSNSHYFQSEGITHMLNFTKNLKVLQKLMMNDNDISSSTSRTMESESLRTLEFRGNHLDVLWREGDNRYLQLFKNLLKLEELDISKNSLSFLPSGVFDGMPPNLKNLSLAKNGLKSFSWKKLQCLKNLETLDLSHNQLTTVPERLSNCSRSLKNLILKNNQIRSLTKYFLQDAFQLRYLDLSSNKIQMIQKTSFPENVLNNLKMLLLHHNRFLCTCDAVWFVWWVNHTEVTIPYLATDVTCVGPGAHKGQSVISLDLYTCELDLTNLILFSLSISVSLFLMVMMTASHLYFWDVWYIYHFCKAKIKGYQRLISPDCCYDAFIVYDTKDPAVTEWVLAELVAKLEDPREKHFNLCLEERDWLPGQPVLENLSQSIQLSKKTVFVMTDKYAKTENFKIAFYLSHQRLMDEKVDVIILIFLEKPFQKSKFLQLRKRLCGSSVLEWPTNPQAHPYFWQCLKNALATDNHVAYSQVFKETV
In short: as §1

SMILES | IC50 (human TLR8) | IC50 (human TLR9) | IC50 (human TLR7)
COc1cc(-c2[nH]c3ccc(C4CCN(CC(C)(C)O)CC4)cc3c2C(C)C)cn2ccnc12 [Example 775, 1-(4-(3-isopropyl-2-(8-methoxyimidazo[1,2-a]pyridin-6-yl)-1H-indol-5-yl)piperidin-1-yl)-2-methylpropan-2-ol] | < 100 nM | 100 to 1000 nM | < 100 nM
CC(C)c1c(-c2cn(C)c3ncccc23)[nH]c2ccc(C3CCN(CC(C)(C)O)CC3)cc12 [Example 750, 1-(4-(3-isopropyl-2-(1-methyl-1H-pyrrolo[2,3-b]pyridin-3-yl)-1H-indol-5-yl)piperidin-1-yl)-2-methylpropan-2-ol] | < 100 nM | 1000 to 50000 nM | < 100 nM
CNC(=O)CN1CCC(c2ccc3[nH]c(-c4cn5ccnc5c(Cl)c4C)c(C(C)C)c3c2)CC1 [Example 414, 2-(4-(2-(8-chloro-7-methylimidazo[1,2-a]pyridin-6-yl)-3-isopropyl-1H-indol-5-yl)piperidin-1-yl)-N-methylacetamide] | < 100 nM | 1000 to 50000 nM | < 100 nM
CCc1c(-c2ccnc3[nH]ncc23)[nH]c2ccc(C3CCNCC3O)cc12 (stereo not drawn) [Example 175, 4-(3-ethyl-2-(1H-pyrazolo[3,4-b]pyridin-4-yl)-1H-indol-5-yl)piperidin-3-ol] | 100 to 1000 nM | 1000 to 50000 nM | 100 to 1000 nM
Cc1cc(-c2[nH]c3ccc(C4CCN(CC(C)(C)O)CC4)cc3c2C(C)C)cn2ccnc12 [Example 774, 1-(4-(3-isopropyl-2-(8-methylimidazo[1,2-a]pyridin-6-yl)-1H-indol-5-yl)piperidin-1-yl)-2-methylpropan-2-ol] | < 100 nM | 100 to 1000 nM | < 100 nM
Cc1n[nH]c2nccc(-c3[nH]c4ccc(C5CCNCC5)cc4c3C(C)C)c12 [Example 227, 4-(3-isopropyl-5-(piperidin-4-yl)-1H-indol-2-yl)-3-methyl-1H-pyrazolo[3,4-b]pyridine] | < 100 nM | 100 to 1000 nM | < 100 nM
CCc1c(-c2cccc3[nH]ncc23)[nH]c2ccc(C3CCN(CC(=O)N(C)C)CC3)cc12 [Example 389, 2-(4-(3-ethyl-2-(1H-indazol-4-yl)-1H-indol-5-yl)piperidin-1-yl)-N,N-dimethylacetamide] | 1000 to 50000 nM | 1000 to 50000 nM | 1000 to 50000 nM
CC(C)c1c(-c2cc(CO)c3nnnn3c2)[nH]c2ccc(C3CCN(C4COC4)CC3)cc12 [Example 738, (6-(3-isopropyl-5-(1-(oxetan-3-yl)piperidin-4-yl)-1H-indol-2-yl)tetrazolo[1,5-a]pyridin-8-yl)methanol] | < 100 nM | 1000 to 50000 nM | < 100 nM
CC(C)c1c(-c2cc(F)c3nccn3c2)[nH]c2ccc(C3CCN(C(=O)C[C@H](C)O)CC3)cc12 [Example 604, (S)-1-(4-(2-(8-fluoroimidazo[1,2-a]pyridin-6-yl)-3-isopropyl-1H-indol-5-yl)piperidin-1-yl)-3-hydroxybutan-1-one] | 1000 to 50000 nM | > 50000 nM | < 100 nM

More lines, now with the values ahead:

IC50 (human TLR8) | IC50 (human TLR9) | IC50 (human TLR7) | SMILES
< 100 nM | < 100 nM | < 100 nM | CNCCN1CCC(c2ccc3[nH]c(-c4ccc5nccn5c4)c(CC(F)F)c3c2)CC1 [Example 681, 2-(4-(3-(2,2-difluoroethyl)-2-(imidazo[1,2-a]pyridin-6-yl)-1H-indol-5-yl)piperidin-1-yl)-N-methylethan-1-amine]
< 100 nM | 1000 to 50000 nM | < 100 nM | CC(C)c1c(-c2ccc(C#N)c3ncccc23)[nH]c2ccc(C3CCN(C(=O)CN(C)C)CC3)cc12 [Example 506, 5-(5-(1-(dimethylglycyl)piperidin-4-yl)-3-isopropyl-1H-indol-2-yl)quinoline-8-carbonitrile]
< 100 nM | 1000 to 50000 nM | < 100 nM | Cc1cc(-c2[nH]c3ccc(C4CCN(C5CCS(=O)(=O)CC5)CC4)cc3c2C(C)C)cc2cnnn12 [Example 794, 4-(4-(3-isopropyl-2-(7-methyl-[1,2,3]triazolo[1,5-a]pyridin-5-yl)-1H-indol-5-yl)piperidin-1-yl)tetrahydro-2H-thiopyran 1,1-dioxide]
< 100 nM | 1000 to 50000 nM | < 100 nM | Cc1c(-c2[nH]c3ccc(C4CCN(C(=O)CN(C)C)CC4)cc3c2C(C)C)c2cccnc2n1C [Example 459, 1-(4-(2-(1,2-dimethyl-1H-pyrrolo[2,3-b]pyridin-3-yl)-3-isopropyl-1H-indol-5-yl)piperidin-1-yl)-2-(dimethylamino)ethan-1-one]
< 100 nM | 100 to 1000 nM | < 100 nM | Cc1cc(-c2[nH]c3ccc(C4CCN(C(=O)CCN5CC6(COC6)C5)CC4)cc3c2C(C)C)cn2nnnc12 [Example 631, 1-(4-(3-isopropyl-2-(8-methyltetrazolo[1,5-a]pyridin-6-yl)-1H-indol-5-yl)piperidin-1-yl)-3-(2-oxa-6-azaspiro[3.3]heptan-6-yl)propan-1-one]
